Data on ten compounds can be found in US20250051347A1, “BIFUNCTIONAL CHIMERIC HETEROCYCLIC COMPOUND AND USE THEREOF AS ANDROGEN RECEPTOR DEGRADER” (Hinova Pharmaceuticals, Inc., priority 2021, published 2025).

The target of assay [1] is T1, androgen receptor (AR) splicing variant AR-v7 (Homo sapiens, UniProt P10275).
T1 construct: The degradation activity of compounds on AR-v7 in 22RV1 cells; host or cells: 22RV1 cells
T1 sequence (P10275 1-644 isoform P10275-3): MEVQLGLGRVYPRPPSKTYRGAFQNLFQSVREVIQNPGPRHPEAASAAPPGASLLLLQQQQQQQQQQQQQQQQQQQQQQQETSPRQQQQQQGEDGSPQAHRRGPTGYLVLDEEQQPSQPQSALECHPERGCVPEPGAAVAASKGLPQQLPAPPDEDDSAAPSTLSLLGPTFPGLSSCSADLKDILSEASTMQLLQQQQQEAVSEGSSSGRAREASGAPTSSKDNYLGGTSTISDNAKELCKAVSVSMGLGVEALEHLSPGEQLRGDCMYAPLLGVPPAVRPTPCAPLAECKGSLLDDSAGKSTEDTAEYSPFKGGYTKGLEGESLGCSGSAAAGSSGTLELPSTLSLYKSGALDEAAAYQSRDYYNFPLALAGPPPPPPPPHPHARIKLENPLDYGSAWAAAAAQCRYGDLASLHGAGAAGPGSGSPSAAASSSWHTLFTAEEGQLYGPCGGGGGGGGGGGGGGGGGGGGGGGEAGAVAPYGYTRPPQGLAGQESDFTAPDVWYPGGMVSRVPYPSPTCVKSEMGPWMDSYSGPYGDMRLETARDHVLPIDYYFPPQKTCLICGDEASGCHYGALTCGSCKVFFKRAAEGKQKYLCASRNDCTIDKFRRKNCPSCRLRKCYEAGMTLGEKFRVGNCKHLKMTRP
Description: Degradation activity on androgen receptor splicing variant AR-v7 in 22RV1 cells (ELISA). The format is cell-based. The settings on record: AR-v7 degradation in 22RV1 cells, 48 h, class symbols.

Assay [2] relates to 22RV1 cells. The note with it: Homo sapiens, 22Rv1, 144 h.
Where [3] appears, read: read-out: 22RV1 IC50 (nM), 22RV1 cells, 6 days culture, CCK-8, OD 450 nm.

Structures are written as SMILES. Where two headings read alike, the source gives them in different places.

`CCC(CC)(c1ccc(Oc2cnc(-c3noc(C)n3)nc2)cc1)c1ccc(O[C@H]2C[C@H](Nc3ccc4c(c3)C(=O)N(C3CCC(=O)NC3=O)C4=O)C2)cc1` (some centres unmarked) [Example 380, 2-(2,6-dioxopiperidin-3-yl)-5-(((1r,3r)-3-(4-(3-(4-((2-(5-methyl-1,2,4-oxadiazol-3-yl)pyrimidin-5-yl)oxy)phenyl)pentan-3-yl)phenoxy)cyclobutyl)amino)isoindolin-1,3-dione] showed a 50% degradation concentration (DC50) in assay [1] below 0.01 µM. Further, the half-inhibitory concentration (IC50) in assay [2] (setting [3]) worked out at 5 nM.
In the same order, the values of `CC(C)(c1ccc(Oc2cnnc(-n3nccn3)c2)cc1)c1ccc(O[C@H]2C[C@H](Nc3ccc4c(c3)C(=O)N(C3CCC(=O)NC3=O)C4=O)C2)cc1` (some centres unmarked) [Example 217] are below 0.01 µM and 15 nM.
On to `CC(C)(O)c1ncc(Oc2ccc(C(C)(C)c3ccc(O[C@H]4C[C@H](Nc5ccc6c(c5)C(=O)N(C5CCC(=O)NC5=O)C6=O)C4)cc3)cc2)cn1` (some centres unmarked) [Example 548], for which, in assay [1], the DC50 was below 0.01 µM. Moreover, the IC50 in assay [2] (setting [3]) was 8 nM.
`Cc1nnc(-c2cc(Oc3ccc(C(C)(C)c4ccc(O[C@H]5C[C@H](Nc6ccc7c(c6)C(=O)N(C6CCC(=O)NC6=O)C7=O)C5)cc4)cc3)ccn2)o1` (some centres unmarked) [Example 172, 2-(2,6-dioxopyridin-3-yl)-5-(((1r,3r)-3-(4-(2-(4-((2-(5-methyl-1,3,4-oxadiazol-2-yl)pyridin-4-yl)oxy)phenyl)propan-2-yl)phenoxy)cyclobutyl)amino) isoindolin-1,3-dione] yielded a half-maximal degradation concentration (DC50) in assay [1] below 0.01 µM. Besides, the IC50 in assay [2] (setting [3]) stood at 19 nM.
With `CC(C)C(=O)c1ncc(Oc2ccc(C(C)(C)c3ccc(O[C@H]4C[C@H](Nc5ccc6c(c5)C(=O)N(C5CCC(=O)NC5=O)C6=O)C4)cc3)cc2)cn1` (some centres unmarked) [Example 291], the DC50 in assay [1] is below 0.01 µM. Besides, in assay [2] (setting [3]), the IC50 stood at 16 nM.
`CC(C)(c1ccc(OCCCCCCCCOCCCCNc2ccc3c(c2)C(=O)N(C2CCC(=O)NC2=O)C3=O)cc1)c1ccc(OCc2ccnc(N3CC4(COC4)C3)n2)cc1` (centres unmarked) [Example 61, 5-((4-((8-(4-(2-(4-((2-(2-oxa-6-azaspiro[3.3]heptan-6-yl)pyrimidin-4-yl)methoxy)phenyl)propan-2-yl)phenoxy)octyl)oxy)butyl)amino)-2-(2,6-dioxopiperidin-3-yl)isoindolin-1,3-dione] showed a DC50 in assay [1] of 1 to 5 µM. Moreover, the IC50 in assay [2] (read-out: 22RV1 IC50 (nM)) stood at 4000 nM.
On to `CC(C)(c1ccc(OCc2ccnc(N3CCNCC3)n2)cc1)c1ccc(OC2CC(Nc3ccc4c(c3)C(=O)N(C3CCC(=O)NC3=O)C4=O)C2)cc1` (centres unmarked) [Example 451, 2-(2,6-dioxopiperidin-3-yl)-5-((3-(4-(2-(4-((2-(piperazin-1-yl)pyrimidin-4-yl)methoxy)phenyl)propan-2-yl)phenoxy)cyclobutyl)amino)isoindolin-1,3-dione], for which the DC50 in assay [1] was below 0.01 µM. The IC50 in assay [2] (setting [3]) stood at 11 nM.
In turn, `CC(C)(c1ccc(Oc2ccnc(N3CC4(COC4)C3)n2)cc1)c1ccc(O[C@H]2C[C@H](Nc3ccc4c(c3)C(=O)N(C3CCC(=O)NC3=O)C4=O)C2)cc1` (some centres unmarked) [Example 244, 5-((1r,3r)-3-(4-(2-(4-(4-((2-(2-oxa-6-azaspiro[3.3]heptane-6-yl)pyrimidin-4-yl)oxy)phenyl)propan-2-yl)phenoxy)cyclobutyl)amino)-2-(2,6-dioxopiperidin-3-yl)isoindolin-1,3-dione] came in with a 50% degradation concentration (DC50) in assay [1] below 0.01 µM. Moreover, the IC50 in assay [2] (setting [3]) was 6 nM.
The compound `CSc1nccc(COc2ccc(C(C)(C)c3ccc(OCCCNc4ccc5c(c4)C(=O)N(C4CCC(=O)NC4=O)C5=O)cc3)cc2)n1` (centres unmarked) [Example 66] had a DC50 in assay [1] of 0.011 to 0.1 µM. In assay [2] (setting [3]), the 50% inhibitory concentration (IC50) is 70 nM.
In turn, `CC(C)(c1ccc(OCc2ccnc(C(=O)C3CC3)n2)cc1)c1ccc(O[C@H]2C[C@H](Nc3ccc4c(c3)C(=O)N(C3CCC(=O)NC3=O)C4=O)C2)cc1` (stereo partly drawn) [Example 115, 5-(((trans)-3-(4-(2-(4-((2-(cyclopropanecarbonyl)pyrimidin-4-yl)methoxy)phenyl)propan-2-yl)phenoxy)cyclobutyl)amino)-2-(2,6-dioxopiperidin-3-yl)isoindolin-1,3-dione] returned a DC50 in assay [1] below 0.01 µM. The 50% inhibitory concentration (IC50) in assay [2] (setting [3]) amounted to 5 nM.
